Results on 117 sequences are retold here after the OligoGym collection.

These antisense oligonucleotides have a phosphorothioate backbone; sugars and methylation of C are not fully specified.
Note: test concentration or dose not given here.

For the first data set, the target named is GNA12. The settings on record: ASO.
GTGCATCAACAAGAACCC had a remaining target (mRNA or protein) (fraction of control) of 0.89.
On the same count and under the same terms, the result for TGTCGCGGAACTCCAGCA reads 0.79; that for GTCCATCTTGTTGAGGAA, 0.68.
Turning to CATGGAACACGAAGCGGA, the remaining target (mRNA or protein) (fraction of control) was 0.57.
As for AGTGCTTCTTGATGCTCA, the remaining target (mRNA or protein) (fraction of control) worked out at 0.62.
Sequence CCTGAAGTCCGGGAAGTG displayed a remaining target (mRNA or protein) (fraction of control) of 0.85.
Still for that read-out and setting: the result for GGCAGCGGCTGAGGGTCC reads 0.68; that for GTTCCGTCTCTTCCTGTC, 0.36; that for TCTTCTTAATAACGAAGT, 0.48.
The same measure, in the same setting: the figure for CTTATCTCGTGCATCAAC is 0.51; for TGGTCTCGAAGATGTTCA it is 0.53.
For the sequence GGAAGAGAATGATGGAGA, the remaining target (mRNA or protein) (fraction of control) was at least 1.
Regarding CATGAACAGGATGGACGT, the remaining target (mRNA or protein) (fraction of control) stood at 0.5.
The same measure, in the same setting: the result for GGTGGAAGAGTGGCTTGC reads 0.65; that for CTCCAGCAGCGCCTTCTG, at least 1; that for GTGCGCTCAGGGCCGGGA, 0.72.
On the same count and under the same terms, the result for GCGCATCTGCTTGAGGAA reads 0.82; that for GGACCTGGTCGTACTCGC, 0.42; that for GAAAGCCTCCCTGATGCC, 0.38.
In turn, GGGACGTACAGCTGGAAG showed a remaining target (mRNA or protein) (fraction of control) of 0.53.
Still for that read-out and setting: the figure for GCTTGAGGAACGTGGACT is 0.31; for GCAGGATCTTCACCAGGC it is 0.93; for GTCGTACTCGCTGGAGGA it is 0.39.
Consider CCATGCTTCTCATTTTCA, for which the remaining target (mRNA or protein) (fraction of control) worked out at 0.49.
On the same count and under the same terms, the result for CAGCCGGTTGGTGCGCCT reads 0.25; that for TCCATGAGGACCTGGTCG, 0.79; that for AGCATGATGTCCTTCAGG, 0.29.
TTCATGGACTCCACCAGC gave a remaining target (mRNA or protein) (fraction of control) of 0.57.
On the same count and under the same terms, the result for ACAAGAACCCTTGAGCCC reads 0.74.
Take TCCGGTCCAAGTTGTCCA: the remaining target (mRNA or protein) (fraction of control) was determined as 0.88.
On the same count and under the same terms, the figure for TTAATAACGAAGTCATGC is 0.73; for TTTTCAGAATACTGCCAA it is 0.63.
Turning to GGAAGTACTTCACCGACT, the remaining target (mRNA or protein) (fraction of control) was at least 1.
CACAATTCCCTTGGTGGC showed a remaining target (mRNA or protein) (fraction of control) of at least 1.
Same read-out and setting: the figure for CACCAGGAGGTCCATCTT is 0.75.
On the same count and under the same terms, the result for AAGTTGTCCAGGAAGTAC reads 0.44; that for CCCCGCCTTGTTCTCGAA, 0.85; that for GTGGTGAAGTGGTGGAAG, 0.87.
Take GTGGACTTGCCGCTCTCG: the remaining target (mRNA or protein) (fraction of control) is at least 1.
CTCAGGGCCGGGACGTAC had a remaining target (mRNA or protein) (fraction of control) of 0.77.
With ACTGCCAAGGAATGCCAA, the remaining target (mRNA or protein) (fraction of control) was at least 1.
The same measure, in the same setting: the figure for ACGTGGACTTGCCGCTCT is 0.32; for GAAGCGGACGTTCTCGGT it is at least 1.
Take CCTGTCGAAGCACTGGAC: the remaining target (mRNA or protein) (fraction of control) was found to be 0.34.
Regarding ACTCGCTTCTCCGGCTGA, the remaining target (mRNA or protein) (fraction of control) turned out to be 0.85.
In turn, CTCGCGGCCGTGGATGAT came in with a remaining target (mRNA or protein) (fraction of control) of 0.99.
Still for that read-out and setting: the result for GTTGAAGAAGAGCTTGTT reads 0.33; that for GATATCTTGCTTACTAGG, 0.37.
Still for that read-out and setting: the result for ACTAGGAAAGTAATTCAG reads 0.47.

The next data set addresses GNAS. The settings on record: ASO.
In turn, TGTTTCTTTTATTTCATTTT had a remaining target (mRNA or protein) (fraction of control) of at least 1.
Same read-out and setting: the figure for TTTCTTTTATTTCATTTTAT is at least 1.
The same measure, in the same setting: the result for ACGGCGGATGTTCTCAGTGT reads 0.71.
The same measure, in the same setting: the result for CTTTGGTTGCCTTCTCACTG reads 0.55.
ACACACGGCGGATGTTCTCA had a remaining target (mRNA or protein) (fraction of control) of 0.42.
TGAATGATGTCACGGCAGTC: the remaining target (mRNA or protein) (fraction of control) is 0.69.
Same read-out and setting: the result for TACTGAAAGTGAGAGGGAAC reads 0.65; that for ATGTTCTCAGTGTCCACAGC, 0.58; that for GCTGCTGTTTTATTTATTTT, 0.75.
The same measure, in the same setting: the result for GCTGCTGCTGTTTTATTTAT reads 0.43; that for GTTTCTTTTATTTCATTTTA, at least 1; that for TTTATTTCATTTTATTTGTT, at least 1.
Same read-out and setting: the figure for TTCATTTTATTTGTTTGCTG is 0.79; for GCGCAGGTGAAATGAGGGTA it is 0.9; for TGGTTGCCTTCTCACTGTCT it is 0.62.
In the case of CTGCTGCTGTTTTATTTATT, the remaining target (mRNA or protein) (fraction of control) came to 0.63.
The same measure, in the same setting: the result for GTGAGAGGGAACTTTTGTGG reads 0.72; that for GATGTTCTCAGTGTCCACAG, 0.45.
On the same count and under the same terms, the result for TCATTTTATTTGTTTGCTGC reads 0.75; that for TATTTGTTTGCTGCTGCTGT, at least 1; that for TGAGAGGGAACTTTTGTGGC, 0.72.
Still for that read-out and setting: the figure for CGGCGGATGTTCTCAGTGTC is 0.32; for TTGTTTCTTTTATTTCATTT it is at least 1.
CATTTTATTTGTTTGCTGCT: the remaining target (mRNA or protein) (fraction of control) came out at 0.65.
On the same count and under the same terms, the result for TGCCTTCTCACTGTCTCCAT reads 0.75.
Sequence TCTTTTATTTCATTTTATTT registered a remaining target (mRNA or protein) (fraction of control) of 0.84.
On the same count and under the same terms, the figure for ACACGGCGGATGTTCTCAGT is 0.39; for CATTTGTTTCTTTTATTTCA it is 0.65; for TATTTCATTTGTTTATTTTA it is at least 1.
Still for that read-out and setting: the result for ATTTGTTTGCTGCTGCTGTT reads 0.81; that for GAATGATGTCACGGCAGTCG, 0.39.
Still for that read-out and setting: the result for GGGTTCCCTTCTTAGAGCAG reads 0.52; that for GTTGCCTTCTCACTGTCTCC, 0.75.
In turn, TTCATTTGTTTCTTTTATTT displayed a remaining target (mRNA or protein) (fraction of control) of at least 1.
ATTTGGAACATCTAAGCAAG showed a remaining target (mRNA or protein) (fraction of control) of 0.66.
The same measure, in the same setting: the figure for GGTTTCGCAAAATCACTCGG is 0.41; for AGGTGAAATGAGGGTAGCAG it is at least 1; for GTGAAATGAGGGTAGCAGTA it is at least 1.
Still for that read-out and setting: the result for CTGAATGATGTCACGGCAGT reads 0.63.
The same measure, in the same setting: the figure for TTGCTGCTGCTGTTTTATTT is at least 1; for GCAGGTGAAATGAGGGTAGC it is at least 1; for ATTTATTTCATTTGTTTCTT it is at least 1.
AGTGAGAGGGAACTTTTGTG: the remaining target (mRNA or protein) (fraction of control) is 0.41.
Same read-out and setting: the result for TGCGCTGAATGATGTCACGG reads 0.41; that for TTTTACTGAAAGTGAGAGGG, 0.9; that for TTGCCTTCTCACTGTCTCCA, 0.56.
The same measure, in the same setting: the result for TTTGCTGCTGCTGTTTTATT reads 0.66.
The same measure, in the same setting: the result for ATATTTATTTCATTTGTTTC reads 0.61; that for AGCGCAGGTGAAATGAGGGT, at least 1; that for TGTTTGCTGCTGCTGTTTTA, 0.96.
With TTACTGAAAGTGAGAGGGAA, the remaining target (mRNA or protein) (fraction of control) was at least 1.
Still for that read-out and setting: the figure for GCGCTGAATGATGTCACGGC is 0.38; for GTTTGCTGCTGCTGTTTTAT it is 0.53; for TTGTTTGCTGCTGCTGTTTT it is 0.45.
The sequence CTTTTATTTCATTTTATTTG showed a remaining target (mRNA or protein) (fraction of control) of 0.97.
Take TTATTTCATTTTATTTGTTT: the remaining target (mRNA or protein) (fraction of control) worked out at 0.92.
Same read-out and setting: the figure for CGCAGGTGAAATGAGGGTAG is 0.35; for TTATTTCATTTGTTTCTTTT it is 0.64.
Same read-out and setting: the result for GGTTGCCTTCTCACTGTCTC reads 0.58; that for TTTGTTTCTTTTATTTCATT, 0.83; that for ACTGAAAGTGAGAGGGAACT, at least 1.
As to GGTTCCCTTCTTAGAGCAGC, the remaining target (mRNA or protein) (fraction of control) is at least 1.
Same read-out and setting: the result for CACGGCGGATGTTCTCAGTG reads 0.44; that for TTTCATTTTATTTGTTTGCT, at least 1.
On to CAGGTGAAATGAGGGTAGCA, for which the remaining target (mRNA or protein) (fraction of control) is at least 1.
Same read-out and setting: the figure for TTTATTTCATTTGTTTCTTT is 0.93; for GGGTTTCGCAAAATCACTCG it is 0.61; for TTTTATTTCATTTTATTTGT it is 0.91.
